Where two headings read alike, the source gives them in different places.
Experiments:
PCP receptor = PCP receptor binding, ^3 H-MK-801; set-up: species or system rat; conditions: Table 4
Protocol: PCP receptor binding assays against ^3 H-MK-801 were conducted as described by Keana et al., Proc. Natl. Acad. Sci (USA) 86: 5631-5635 (1989); Keana et al., Life Sciences 43: 965-973 (1988). For (+) ^3 H-MK-801 binding, 1 nM of radioligand was incubated with about 100 ug of thawed rat brain membrane protein for 4 hr at room temperature. The assays were carried out in 5 mM Tris/acetate and were stopped by rapid filtration through Whatman GF/B or Schleicher & Schuell no. 32 glass fiber filters (presoaked in 0.05% polyethylenamine).

5-HT1A receptor = target: T1, 5-HT1A receptor (Rattus norvegicus, UniProt P19327); test: biochemical; format: binding; set-up: 47: 529-540 (1986); from tissue; host or cells: brain tissue, inferred from the cited method (rat frontal cortex)
T1 sequence (P19327 1-422): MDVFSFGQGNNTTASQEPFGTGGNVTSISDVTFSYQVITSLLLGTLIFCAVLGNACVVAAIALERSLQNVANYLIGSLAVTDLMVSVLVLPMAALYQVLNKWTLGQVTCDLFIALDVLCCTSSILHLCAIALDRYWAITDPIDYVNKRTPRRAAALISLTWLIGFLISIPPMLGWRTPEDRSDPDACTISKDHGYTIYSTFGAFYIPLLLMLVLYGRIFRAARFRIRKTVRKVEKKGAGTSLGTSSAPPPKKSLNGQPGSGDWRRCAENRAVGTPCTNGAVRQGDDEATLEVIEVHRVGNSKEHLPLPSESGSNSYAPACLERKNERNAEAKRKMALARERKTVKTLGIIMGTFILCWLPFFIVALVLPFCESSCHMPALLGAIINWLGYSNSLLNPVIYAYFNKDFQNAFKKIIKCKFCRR
Protocol: Further sigma receptor binding assays against [^3 H]DTG and 5HT-1A binding assays were conducted according to the procedure outlined in the previous examples.

sigma-2 binding site = target: T2, sigma-2 binding site (Cavia porcellus, UniProt H0V073); test: biochemical; set-up: species or system guinea pig
T2 construct: Guinea pig whole membrane preparations (P2 microsomal fraction); from tissue; host or cells: guinea pig membranes (P2 microsomal fraction), as described by Weber et al; brain inferred from the sister test b489
T2 sequence (H0V073 1-176): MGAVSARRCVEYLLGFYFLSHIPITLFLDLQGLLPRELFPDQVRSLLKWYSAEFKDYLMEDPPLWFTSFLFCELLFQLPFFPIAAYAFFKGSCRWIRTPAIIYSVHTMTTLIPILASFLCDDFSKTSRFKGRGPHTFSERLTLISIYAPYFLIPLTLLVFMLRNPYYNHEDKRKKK
Protocol: For the standard equilibrium assay, the mixtures were incubated for 30 min. at room temperature, then filtered and the radioactivity determined as described above.

sigma receptor = test: Sigma receptor binding, [^3 H]DTG, brain membranes (both sigma-1 and sigma-2 sites); set-up: species or system guinea pig; conditions: for IC50: Table 6; for Ki: Table 7, Phenyl-(CH2)x -NH--(CH2)y -Phenyl, read-out: Ki
sigma-1 binding site = target: T3, sigma-1 binding site (Cavia porcellus, UniProt Q60492); test: biochemical; set-up: species or system guinea pig
T3 construct: Guinea pig whole membrane preparations (P2 microsomal fraction); from tissue; host or cells: guinea pig membranes (P2 microsomal fraction), as described by Weber et al; brain inferred from the sister test b489
Protocol: [^3 H]DTG was purchased from DuPont/NEN.
The radioactivity on the filters was determined by scintillation spectrometry at an efficiency of about 50% using Cytoscint (ICN) scintillation fluid.

[1] = Table 10, read-out: SIGMA-2 KI vs. 3H-DTG + PENTAZOCINE MEAN
[2] = Table 10, read-out: SIGMA-1 KI vs. 3H-PENTAZOCINE MEAN
[3] = less than about 0.1, see Table 10
[4] = Table 6, read-out: 5HT-1A (nM) MEAN
[5] = Example 9, read-out: sigma-2 IC50
[6] = Table 18, read-out: IC50 (nM) at sigma-2

T3 sequence (Q60492 whole entry): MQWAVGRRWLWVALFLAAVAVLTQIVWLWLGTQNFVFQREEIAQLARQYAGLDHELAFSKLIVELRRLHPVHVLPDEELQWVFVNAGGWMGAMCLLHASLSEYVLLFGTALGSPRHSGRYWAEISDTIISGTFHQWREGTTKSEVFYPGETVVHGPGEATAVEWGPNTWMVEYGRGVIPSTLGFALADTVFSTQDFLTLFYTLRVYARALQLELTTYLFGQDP

Compound | IC50 (PCP receptor) | Ratio 5-HT1A /σ (5-HT1A receptor; Table 5) | IC50 (5-HT1A receptor; Table 5, read-out: 5-HT1A IC50) | Ki (sigma-2 binding site; [1]) | other results
C[C@H](Cc1ccccc1)NCc1ccccc1 [Compound 6] | > 10 µM | 31 | 3780 nM | – | –
CCN[C@H](C)Cc1ccccc1 [Compound 4] | > 10 µM | 5.9 | 4050 nM | – | –
FC(F)(F)c1cccc(N2CCN(CCc3ccccc3)CC2)c1 [Compound 37] | > 10 µM | 2.6 | 20.3 nM | – | –
C[C@@H](N)Cc1ccc(I)cc1 [Compound 29] | > 10 µM | 3.1 | 15500 nM | – | –
c1ccc(CCCN2CCN(c3ccc4ccccc4c3)CC2)cc1 [Compound 50] | > 10 µM | 94 | 282 nM | – | –
Clc1cccc(N2CCN(CCCc3ccccc3)CC2)c1 [Compound 33] | > 10 µM | 2.6 | 51.6 nM | – | –
CC(NCCCc1ccccc1)C(=O)c1ccccc1 (stereo not shown) [Compound 13] | > 10 µM | 2 | 288 nM | – | –
c1ccc(CCCN2CCN(c3ccccc3)CC2)cc1 [Compound 46] | > 10 µM | 3 | 21.5 nM | – | –
c1ccc(CN2CCOC(c3ccccc3)C2)cc1 (stereo not shown) [Compound 35] | > 10 µM | 40 | 10400 nM | – | –
c1ccc(CCCNC2CCc3ccccc3C2)cc1 (stereo not shown) [Compound 31] | > 10 µM | .92 | 19.3 nM | – | –
C[C@@H](Cc1ccccc1)NCCc1ccccc1 [Compound 27] | > 10 µM | 200 | 6510 nM | – | –
C[C@@H](Cc1ccccc1)NCCCc1ccc2ccccc2c1 [Compound 42] | > 10 µM | 110 | 572 nM | – | –
FC(F)(F)c1cccc(N2CCN(CCCCc3ccccc3)CC2)c1 [Compound 47] | > 10 µM | 1.6 | 9.23 nM | – | –
C[C@H](N[C@@H](C)Cc1ccccc1)c1ccccc1 [Compound 26] | > 10 µM | 3.5 | 10000 nM | – | –
C[C@@H](N)Cc1ccccc1 [Compound 28] | > 10 µM | – | – | – | –
C[C@@H](Cc1ccccc1)NCCCc1ccccc1 [Compound 43, N-(3-phenylpropyl)-1-pheny1-2-propylamine] | > 10 µM | – | 1110 nM | 37.5 nM | 5-HT1A affinity relative to antipode (5-HT1A receptor; S(+) isomer of cmp. #1): only one-tenth the affinity of its antipode
CC(Cc1cccc2ccccc12)NCCCc1ccccc1 (racemic) [Compound 16, (±) N-[1-(1'-Naphthyl)-2-propyl]-3-phenylpropylamine] | > 10 µM | – | 44.8 nM | 152 nM | Ki (sigma-2 binding site; Example 9, read-out: sigma-2 binding affinity): 150 nM
C[C@@H](Cc1ccccc1)N(C)CCCc1ccccc1 [Compound 113, N-Methyl-N-(3-phenylpropyl)-1-phenylisopropylamine] | – | – | – | 4.87 nM | IC50 (sigma receptor; [^3 H]DTG): 2.22 nM; Ki (sigma-1 binding site; [2]): 0.51 nM; S1/S2 Ratio (sigma-1 binding site; Table 10, sigma-1/sigma-2): 0.105; IC50 ratio of sigma-1/sigma-2 (sigma-1 selective compounds) (sigma-1 binding site; [3]): less than 0.1; IC50 (5-HT1A receptor; [4]): 2150 nM
CC(Cc1ccc2ccccc2c1)NCCCc1ccccc1 (stereo not shown) [Compound 18, N-(3-phenylpropyl)-1-(2-naphthyl)-2-propylamine] | > 10 µM | – | 588 nM | 15.1 nM | –

Compound | IC50 (PCP receptor) | Ratio 5-HT1A /σ (5-HT1A receptor; Table 5) | IC50 (5-HT1A receptor; Table 5, read-out: 5-HT1A IC50) | Ki (sigma-2 binding site; [1]) | other results
c1ccc(CCCCCN2CCC(Cc3ccccc3)CC2)cc1 [Compound 117, N-(5-phenylpentyl)-4-benzylpiperidine] | – | – | – | 2.78 nM | IC50 (sigma receptor; [^3 H]DTG): 2.11 nM; Ki (sigma-1 binding site; [2]): 0.58 nM; S1/S2 Ratio (sigma-1 binding site; Table 10, sigma-1/sigma-2): 0.210; IC50 (5-HT1A receptor; [4]): 781 nM
C[C@H](Cc1ccccc1)NCCOc1ccccc1 [Compound 8] | > 10 µM | .92 | 43.6 nM | – | change in sigma receptor affinity vs. analog (sigma receptor; Examples 5 and 6, [^3 H]DTG): about 7 fold
Clc1ccc(C2=CCN(CCCCc3ccccc3)CC2)cc1 [Compound 38] | > 10 µM | 25 | 107 nM | – | –
CC(Cc1ccccc1)NCC1CC1 (stereo not shown) [Compound 24] | > 10 µM | 1.4 | 956 nM | – | –
CN[C@H](C)Cc1ccccc1 [Compound 3] | > 10 µM | – | 1780 nM | – | –
CCCN[C@H](C)Cc1ccccc1 [Compound 5] | > 10 µM | .88 | 1500 nM | – | –
c1ccc(CCCCNCCc2ccccc2)cc1 [Compound 71, N-(4-phenylbutyl)phenethylamine] | – | – | – | 119 nM | IC50 (sigma-2 binding site; [5]): 120 nM; IC50 (sigma receptor; [^3 H]DTG): 5.68 nM; Ki (sigma receptor): 5.5 nM; Ki (sigma-1 binding site; [2]): 2.6 nM; S1/S2 Ratio (sigma-1 binding site; Table 10, sigma-1/sigma-2): 0.022; IC50 ratio of sigma-1/sigma-2 (sigma-1 selective compounds) (sigma-1 binding site; [3]): less than 0.1; IC50 (5-HT1A receptor; [4]): 225 nM
CC(Cc1ccc2ccccc2c1)NCCCc1ccccc1 (racemic) [Compound 17, (±) N-[1-(2'-Naphthyl)-2-propyl]-3-phenylpropylamine] | > 10 µM | – | 87.8 nM | 222 nM | –
CC(Cc1ccc(Br)cc1)NCCCc1ccccc1 (racemic) [Compound 21, (±) N-[1-(4'-Bromophenyl)-2-propyl]-3-phenylpropylamine] | > 10 µM | – | 195 nM | 39.1 nM | IC50 (sigma-2 binding site; Table 17, read-out: IC50 (nM) at sigma-2): 39 nM
C[C@@H](N)Cc1ccc([N+](=O)[O-])cc1 [Compound 30] | > 10 µM | 2.6 | 55000 nM | – | –
c1ccc(CCCNC2Cc3ccccc3C2)cc1 [Compound 14] | > 10 µM | 5.4 | 154 nM | – | –
c1ccc(CCCN2CCC(c3ccccc3)CC2)cc1 [Compound 39] | > 10 µM | 75 | 89.6 nM | – | –
c1ccc(CCCCN2CCN(c3ccccc3)CC2)cc1 [Compound 48] | > 10 µM | 2.3 | 6.3 nM | – | –
C[C@H](Cc1ccccc1)NCC#Cc1ccccc1 [Compound 25] | > 10 µM | 7.3 | 753 nM | – | –
c1ccc(CCCCNCc2ccccc2)cc1 [Compound 75, N-(4-phenylbutyl)benzylamine] | – | – | – | 162 nM | IC50 (sigma-2 binding site; [5]): 160 nM; IC50 (sigma receptor; [^3 H]DTG): 13.6 nM; Ki (sigma receptor): 13 nM; Ki (sigma-1 binding site; [2]): 9.61 nM; S1/S2 Ratio (sigma-1 binding site; Table 10, sigma-1/sigma-2): 0.059; IC50 ratio of sigma-1/sigma-2 (sigma-1 selective compounds) (sigma-1 binding site; [3]): less than 0.1; IC50 (5-HT1A receptor; [4]): 255 nM
c1ccc(CCCCCNCCCCc2ccccc2)cc1 [Compound 76, N-(5-phenylpentyl)-(4-phenyl)butylamine] | – | – | – | 68 nM | IC50 (sigma-2 binding site; [6]): 48 nM; IC50 (sigma receptor; [^3 H]DTG): 2.65 nM; Ki (sigma receptor): 2.5 nM; IC50 (sigma-1 binding site): 0.48 nM; IC50 ratio of sigma-1/sigma-2 (sigma-1 selective compounds) (sigma-1 binding site): less than 0.1; Ki (sigma-1 binding site; SIGMA-1 KI vs. 3H-P[…]): 0.48 nM; S1/S2 Ratio (sigma-1 binding site; guinea pig, microsomes): 0.007; IC50 (5-HT1A receptor; [4]): 119 nM
c1ccc(CCCCCNCCCc2ccccc2)cc1 [Compound 111, N-(5-phenylpentyl)-3-phenylpropylamine] | – | – | – | 9.84 nM | IC50 (sigma-2 binding site; [6]): 9.8 nM; IC50 (sigma receptor; [^3 H]DTG): 2.73 nM; Ki (sigma receptor): 1.8 nM; Ki (sigma-1 binding site; [2]): 0.28 nM; S1/S2 Ratio (sigma-1 binding site; Table 10, sigma-1/sigma-2): 0.029; IC50 (sigma-1 binding site; Table 15, read-out: IC50 (nM) at sigma-1): 0.28 nM; IC50 ratio of sigma-1/sigma-2 (sigma-1 selective compounds) (sigma-1 binding site; [3]): less than 0.1; IC50 (5-HT1A receptor; [4]): 92.2 nM
C[C@H](Cc1ccccc1)NCCC(=O)c1ccccc1 [Compound 9] | > 10 µM | 2 | 122 nM | – | –
c1ccc(CCCCN2CCN(Cc3ccccc3)CC2)cc1 [Compound 79, N-(4-phenylbutyl)-N'-benzylpiperazine] | – | – | – | 6.99 nM | IC50 (sigma receptor; [^3 H]DTG): 2.25 nM; Ki (sigma-1 binding site; [2]): 0.17 nM; S1/S2 Ratio (sigma-1 binding site; Table 10, sigma-1/sigma-2): 0.024; IC50 ratio of sigma-1/sigma-2 (sigma-1 selective compounds) (sigma-1 binding site; [3]): less than 0.1; IC50 (5-HT1A receptor; [4]): 173 nM

From patent US6057371A, “Sigma receptor ligands and the use thereof” (Virginia Commonwealth University, priority 1992, dated 2000)
